Values after ≈ are worked out from the molar mass of the structure shown. “Also recorded” adds a separate entry of the source. Structures can show the parent of a compound that is named as a salt. Where two headings read alike, the source gives them in different places.
Experiments:
Assay type in all cases: physicochemical
[1] = Primary salt screen: XRPD pattern after drying and after 40° C./75% RH; conditions: for Post-Drying (XRPD pattern): oven at 40° C. for about 24 hours; for Comments (stability): salt screen summary; for Post 40° C./75% RH (XRPD pattern): stability chamber at 40° C./75% RH for about 24 hours
Description: The following procedure was used: • Approximately 30 mg of 1-methyl-1,4,5,10-tetrahydropyrazolo[3,4-b][1,5]benzodiazepine freebase was weighed into 5×1.5 mL glass vials. • 300 μL of selected solvent system was added to each vial to form a mobile slurry, and a beige slurry was observed. • 1.05 (or 0.525 for the hemi experiments) equivalents of acid counterion (see Table 1) was added to each sample and initial observations were recorded. • The samples were temperature cycled between ambient and 40° C. in 4-hour cycles for about 72 hours. • The samples were collected, and observations made. • Samples in which solids were observed were filtered via centrifugation and the solids were loaded onto a multi-well XRPD plate and analyzed by XRPD. • Samples in which no solids were observed were uncapped and left undisturbed to allow evaporation at ambient temperature.

[2] = Salt disproportionation studies in deionized water; conditions: about 24 hours; for salt disproportionation: slurry in deionized water, ambient temperature
Description: (§1) The following procedure was used during the salt disproportionation studies: • Approximately 20 mg of phosphate form 1 (Example 3) and L-tartrate form 1 (Example 5) were weighed into 2 mL glass vials. • Deionized water was added to each sample in 100 μL aliquots until a mobile slurry was observed. • The slurries were agitated at ambient temperature for about 24 hours. • The slurries were collected and filtered via centrifugation. • The isolated solids were analyzed by XRPD. • The pH of the mother liquors were recorded.

[3] = Dynamic / gravimetric vapour sorption (DVS/GVS) hygroscopicity; conditions: for hygroscopicity: DVS, 25° C.
Description: Approximately, 10-20 mg of sample was placed into a mesh vapour sorption balance pan and loaded into a DVS Intrinsic dynamic vapour sorption balance by Surface Measurement Systems. The sample was subjected to a ramping profile from 40-90% relative humidity (RH) at 10% increments, maintaining the sample at each step until a stable weight had been achieved (dm/dt 0.004%, minimum step length 30 minutes, maximum step length 500 minutes) at 25° C. After completion of the sorption cycle, the sample was dried using the same procedure to 0% RH and then a second sorption cycle back to 40% RH. Two cycles were performed. The weight change during the sorption/desorption cycles were plotted, allowing for the hygroscopic nature of the sample to be determined. XRPD analysis was then carried out on any solid retained.
Approximately 10-20 mg of sample was placed into a mesh vapour sorption balance pan and loaded into an IGASorp Moisture Sorption Analyser balance by Hiden Analytical. The sample was subjected to a ramping profile from 40-90% relative humidity (RH) at 10% increments, maintaining the sample at each step until a stable weight had been achieved (98% step completion, minimum step length 30 minutes, maximum step length 60 minutes) at 25° C. After completion of the sorption cycle, the sample was dried using the same procedure to 0% RH, and finally taken back to the starting point of 40% RH. Two cycles were performed. The weight change during the sorption/desorption cycles were plotted, allowing for the hygroscopic nature of the sample to be determined.

[4] = Thermodynamic solubility in PBS buffer pH 7.4; conditions: for solubility: PBS buffer at pH 7.4, ambient temperature, about 24 hours, HPLC; for pH (t = 24 h): mother liquor of PBS pH 7.4 slurry
Description: The thermodynamic solubility of freebase (example 1), phosphate form 1 (example 3) and L-tartrate form 1 (example 5) were assessed in phosphate buffered saline (PBS) buffer at pH 7.4 according to the following procedure: • Approximately 30 mg of each form was weighed into 2 mL glass vials. • 100 μL of buffer solution was added to each vial until partial dissolution was observed. • The observed slurries were agitated at ambient temperature for about 24 hours. • The samples were collected, and observations were recorded. • The samples were filtered via centrifugation. • The pH of the mother liquors were recorded. • The concentration of the mother liquors were recorded by HPLC.

[5] = Hydration studies in methanol/water mixtures; conditions: MeOH/water mixtures, water activity 0.2, 0.6, 0.8, about 24 hours
Description: as §1, with “the hydration” for “the salt disproportionation”, “• Selected methanol/deionized” for “• Deionized”, “water mixtures (see Table 5) were” for “water was”

[6] = 1-week stability studies (XRPD, HPLC)
Description: The isolated 1-methyl-1,4,5,10-tetrahydropyrazolo[3,4-b][1,5]benzodiazepine freebase was characterized by TG/DTA, DSC, DVS with post-DVS, XRPD, HPLC, ^1H NMR and LC-MS, as per the methods detailed above. The 1-methyl-1,4,5,10-tetrahydropyrazolo[3,4-b][1,5]benzodiazepine freebase was stored at 40° C./75% relative humidity (RH) for 1 week to determine the stability of the material at increased RH and to identify potential hydrate formation.
One-week stability studies were conducted on the freebase (example 1), phosphate form 1 (example 3) and L-tartrate form 1 (example 5) salts using the following procedures: • Approximately 20 mg of each form was weighed into 3×2 mL glass vials. • One vial for each form was stored under the following conditions for 1-week: • 1. Ambient temperature, light and humidity (unsealed vial) • 2. 40° C./75% RH (unsealed vial) • 3. 80° C. (sealed vial) • The samples were collected after 1-week and observations were made. • The solids were analyzed by XRPD and HPLC.

[7] = 1 week, ambient temperature, light and humidity, 40° C./75% RH, 80° C.

Post-Drying (XRPD pattern) [1] | Post 40° C./75% RH (XRPD pattern) [1] | Compound | further results
Pattern 1 | Pattern 2 | Cn1ncc2c1Nc1ccccc1NC2 [Napsylate pattern 1] | Comments (stability) [1]: Good
Pattern 3 | Pattern 3 | Cn1ncc2c1Nc1ccccc1NC2 [Sulfate pattern 3] | –
Pattern 2 | Pattern 2 | Cn1ncc2c1Nc1ccccc1NC2 [Sulfate pattern 2] | –
Pattern 1 | Pattern 1 | Cn1ncc2c1Nc1ccccc1NC2 [Tosylate pattern 1] | Comments (stability) [1]: Good
Pattern 1 | Pattern 1 | Cn1ncc2c1Nc1ccccc1NC2 [Napadisylate pattern 1] | Comments (stability) [1]: Good
Pattern 3 | Pattern 3 | Cn1ncc2c1Nc1ccccc1NC2 [Tosylate pattern 3] | –
Pattern 1 | Pattern 4 | Cn1ncc2c1Nc1ccccc1NC2 [Sulfate pattern 1] | –
Pattern 2 | Pattern 2 | Cn1ncc2c1Nc1ccccc1NC2 [Tosylate pattern 2] | –
Pattern 2 | Pattern 2 | Cn1ncc2c1Nc1ccccc1NC2 [Napadisylate pattern 2] | –
Pattern 2 | Pattern 2 | Cn1ncc2c1Nc1ccccc1NC2 [Napsylate pattern 2] | –

The remaining lines, values behind:

Compound | Post-Drying (XRPD pattern) [1] | Post 40° C./75% RH (XRPD pattern) [1] | further results
Cn1ncc2c1Nc1ccccc1NC2 [Esylate pattern 1] | Pattern 1 | Pattern 2 | –
Cn1ncc2c1Nc1ccccc1NC2 [Mesylate pattern 1] | Pattern 1 | Pattern 1/2 | –
Cn1ncc2c1Nc1ccccc1NC2 [Maleate pattern 1] | Pattern 1 | Pattern 1 | –
Cn1ncc2c1Nc1ccccc1NC2 [Mesylate pattern 2] | Pattern 2 | Pattern 1 | –
Cn1ncc2c1Nc1ccccc1NC2 [L-tartrate form 1, L-tartaric acid addition salt of 1-methyl-1,4,5,10-tetrahydropyrazolo[3,4-b][1,5]benzodiazepine] | – | – | change in XRPD pattern ([2]; material slurried in water): No change in XRPD pattern; salt disproportionation [2]: Salt disproportionation was not observed; salt disproportionation ([2]; listed as L-tartrate): No evidence; change in form by XRPD post-DVS analysis [3]: No evidence of form changes or hydrate formation; hygroscopicity [3]: slightly hygroscopic; hygroscopicity ([3]; listed as L-tartrate salt): slightly hygroscopic; DVS mass increase ([3]; at 90% RH): about 0.6%; DVS mass increase ([3]; at 90% RH, listed as L-tartrate salt): about 0.6 wt. %; change in form by XRPD post-DVS analysis ([3]; listed as L-tartrate salt): no changes in form; solubility [4]: 6300 µg/mL; pH (t = 24 h) [4]: 3.36; change in XRPD pattern [5]: No change in XRPD pattern; hydrate formation [5]: Hydrate formation was not observed; hydrate formation ([5]; listed as L-tartrate): No evidence; thermal stability and hygroscopicity ([1]; conclusion of salt screen): acceptable thermal stability and hygroscopicity; Post-Drying (XRPD pattern) ([1]; listed as Tartrate pattern 1): Pattern 1; Comments (stability) [1]: Good; Post 40° C./75% RH (XRPD pattern) ([1]; listed as Tartrate pattern 1): Pattern 1; changes in form by XRPD [6, 7]: no changes in form; changes in purity by HPLC [6, 7]: did not identify any significant changes in purity
Cn1ncc2c1Nc1ccccc1NC2 [Hydrobromide pattern 2] | Pattern 2 | Pattern 2 | –
Cn1ncc2c1Nc1ccccc1NC2 [Isethionate pattern 1] | Pattern 1 | Pattern 3 | –
Cn1ncc2c1Nc1ccccc1NC2 [freebase, 1-Methyl-1,4,5,10-tetrahydropyrazolo[3,4-b][1,5]benzodiazepine] | – | – | change in form by XRPD post-DVS analysis [3]: No change in form; hygroscopicity by DVS ([3]; above 70% RH): hygroscopic; DVS mass increase ([3]; between 0 and 70% RH): about 0.11%; hygroscopicity by DVS ([3]; between 0 and 70% RH): non-hygroscopic; DVS mass increase ([3]; between 70 and 90% RH): about 2.74%; solubility [4]: 300 µg/mL (≈ 1500 µM); pH (t = 24 h) [4]: 7.32; changes in form or purity ([6]; 1 week at 40° C./75% RH and 80° C.): no changes in form or purity; XRPD diffractogram after storage ([6]; 1 week under ambient conditions (temperature, light, humidity)): An additional peak was observed; changes in pattern/form by XRPD post-storage ([6]; 40° C./75% RH for 1 week): No significant changes in pattern; also recorded: no changes in form; stability under ambient light ([6]; conclusion of 1-week stability study): may be unstable under ambient light; changes in purity by HPLC ([6]; stored under ambient conditions): did not show any significant changes in purity
Cn1ncc2c1Nc1ccccc1NC2 [Isethionate pattern 2] | Pattern 2 | Pattern 3 | –
Cn1ncc2c1Nc1ccccc1NC2 [Mesylate pattern 3] | Pattern 3 | Deliquesced | –
Cn1ncc2c1Nc1ccccc1NC2 [Besylate pattern 1] | Pattern 1 | Pattern 1, 2 | –
Cn1ncc2c1Nc1ccccc1NC2 [Edisylate pattern 1] | Pattern 1 | Pattern 2 | Comments (stability) [1]: Good
Cn1ncc2c1Nc1ccccc1NC2 [Edisylate pattern 2] | Pattern 2 | Pattern 2 | –
Cn1ncc2c1Nc1ccccc1NC2 [Hydrobromide pattern 1] | Pattern 1 | Pattern 1 | Comments (stability) [1]: Good
Cn1ncc2c1Nc1ccccc1NC2 [Esylate pattern 2] | Pattern 2 | Pattern 2 | –

Source: patent US20240287074A1, “SALTS AND CRYSTALS” (Kinoxis Therapeutics Pty Ltd, priority 2020, published 2024)
